US12440469B2, “P-gp inducers as protectors against chemotherapy-induced side effects, such as peripheral neuropathy (CIPN) and hair loss” (Syddansk Universitet, priority 2019, dated 2025)
One block for each compound: values may come before it.

Columns and labels:
[1] = system: iPSC-derived sensory neurons; assay: Vincristine neurotoxicity in iPSC-derived sensory neurons with or without MK-571 or rifampicin; format: cell-based, human
Source text: Sensory neurons were generated from human induced pluripotent stem cells (iPSCs) by implementing the well-established protocol by Chambers et. al. (Nat Biotech 2012). The neuronal differentiation was initiated when iPSCs achieved 70-80% confluency using KSR medium, which contained 82% KnockOut DMEM (Gibco, 10829-018) and 15% KnockOut Serum Replacement (KSR, ThermoFisher, 10828-028), 1% GlutaMAX-I (Gibco, 35050-038), 1% mini-mum essential medium non-essential amino acids (MEM-NEAA, Gibco, 11140-035), 1% P/S and 0.055 mM β-mercaptoethanol (Gibco, 21985023).
On days 0-5, SMAD signaling was inhibited by adding 0.1 μM LDN-193189 (Selleck, S7507) and 10 μM SB-431542 (Selleck, S1067) to the medium. Medium was changed daily, and N2 medium was added with 25% increments every other day starting on day 4 (100% N2 on day 10). N2 medium consists of 97% Neurobasal medium (Gibco, 21103-049) with 1% N2 Supplement (Gibco, 17502-048), 1% B27 Supplement (Gibco, 17504-044) and 1% P/S. On days 2-10, nociceptor induction was initiated with the addition of the three inhibitors, 3 μM CHIR99021 (Selleck, S1263), 10 μM SU5402 (Selleck, S7667) and 10 μM DAPT (Selleck, S2215).
For long-term cultivation starting on day 12, cells were washed with PBS÷ and incubated with Accutase for 30 min to obtain a single-cell suspension. After incubation, the culture plates were gently rocked and cellular clumps were mechanically dissociated by pipetting up and down. The cells were filtered through a 40 μm nylon cell strainer (Corning, 431750) and centrifuged (800 rpm, 5 min, RT). Following resuspension of the pellet, iPSC-SNs were seeded as single cells on PLO/LAM/FN-coated culture plates at a density of 150,000 viable cells/cm^2. […]
Cells were treated with vincristine from 0.001-1 μM for 24 hours and immunolabeled with peripherin antibody. Quantification of network was done using ImageJ and MIPAR. […]

[2] = system: paclitaxel treated patients with breast or ovarian cancer; assay: Paclitaxel dose modification due to peripheral neuropathy in patients using P-gp inhibitors (logistic regression); format: in vivo, human; settings: for Multivariate analysis Odds-ratio of paclitaxel dose modification due to peripheral neuropathy: adjusted for age, body surface, tumor type, cancer stage, treatment schedule and previous chemotherapy; for Univariate analysis Odds-ratio of paclitaxel dose modification due to peripheral neuropathy: concomitant use with paclitaxel, 503 patients database; for increased risk of dose modification due to peripheral neuropathy: paclitaxel-treated patients, text summary of the multivariate analysis
Source text: Data were log-transformed to ensure normality of data.
To assess if P-gp inhibition leads to increased risk of peripheral neuropathy we used a previously described database of 503 paclitaxel treated patients with breast or ovarian cancer (Sanchez-Barroso L et al. The Oncologist. 2018 Nov. 23). […] P-gp inhibitors were selected based on two literature reviews (see comments under table 1). From these reviews, we identified drugs listed as P-gp inhibitors (drugs classified as inhibitor in either review), and, within these, strong P-gp inhibitors (drugs classified as inhibitor in both reviews).
The association from univariate and multivariate analysis between paclitaxel dose modification due to peripheral neuropathy and concomitant P-gp inhibitor use is shown in Table 1.

[3] = system: SH-SY5Y-derived neurons; assay: Neurite number and length in differentiated SH-SY5Y cells after paclitaxel with or without valspodar
Experimental: (§1) SH-SY5Y cells (94030304, Sigma-Aldrich) were kept in DMEM/F:12 (11320074, ThermoFisher) with 15% heat-inactivated fetal bovine serum (hiFBS, F9665 Sigma-Aldrich), 1% penicillin/streptomycin (p/s) and 2 mM glutamine. Cells were split 1:10-1:20 using 0.05% trypsin-EDTA (10779413, Fisher Scientific) at 70-80% confluence.
(§2) Paclitaxel (T7402, Sigma-Aldrich) was diluted serially in DMSO (D2650, Sigma-Aldrich) and these stock solutions diluted 1:500 to ensure 0.2% DMSO in all samples. […] Valspodar (SML0572, Sigma-Aldrich) were used at a final concentration of 4 μM. Antibody against TUBB3 (MA1-118, ThermoFisher Scientific) was used at 1:1000.
(§3) Briefly, SH-SY5Y cells below passage 15 were seeded at 5-6×10^3 cells/cm^2 in uncoated 6-well plates (day 0 (D0)) and left overnight in growth media. The next day (D1) differentiation was initiated using DMEM/F:12 media with 2.5% hiFBS, 1% p/s, 2 mM glutamine and 10 μM retinoic acid (RA, R2625 Sigma-Aldrich) and media was replaced at D3 and D5. On D7 cells were split 1:1 using 0.05% trypsin-EDTA to uncoated dishes and on D8 hiFBS content was reduced to 1%. On D10 the cells were split 1:1 to extracellular matrix-coated dishes (E0282, Sigma-Aldrich). On D11 media was replaced with the final differentiation media containing neurobasal media (21103049, ThermoFisher) with 1×B27 supplement (17504044, ThermoFisher), 20 mM KCl (10697623, Fisher Scientific), 1% p/s, 1× Glutamax, 50 ng/ml brain-derived neurotrophic factor (BDNF, CST-3897S, Peprotech), 2 mM dibutyryl cyclic AMP (db-cAMP, D0627 Sigma-Aldrich) and 10 μM RA. Media was replaced on D14 and D17 and cells were tested and confirmed as fully differentiated on D18 and used for downstream applications as outlined below.
(§4) Both differentiated and undifferentiated SH-SY5Y cells were fixed using 4% paraformaldehyde. Cells were permeabilized using 0.25% Triton X-100 and unspecific binding was blocked using bovine serum albumin (BSA). Primary antibodies were incubated overnight at 4° C. and secondary antibodies were incubated for one hour at room temperature. Nuclei were stained using 1.5 μM DAPI for 5 minutes. Imaging was performed using a Leica DMI4000B microscope. Neurite morphology was assessed using the ImageJ modules CellCounter and Simple Neurite Tracer. To determine number of neurites per cell, CellCounter was used to count the number of cells with 0, 1, 2 . . . n neurites. Neurite length was determined using Simple Neurite Tracer. For both endpoints, at least five images of each condition from three separate differentiations were used. ImageJ analysis was blinded to the person assessing length and number of neurites to ensure no bias. […]

[4] = molecular target: T1, P-gp (Homo sapiens, UniProt P08183); assay: Intracellular paclitaxel concentration (LC-MS/MS) in differentiated SH-SY5Y cells under P-gp inhibition; format: cell-based; settings: 10 μM paclitaxel, 1 hour, P-gp inhibition by 4 μM valspodar, p<0.001
T1 construct: indicated expression of the efflux transporters P-gp and MRP1 in both SH-SY5Y cells and human dorsal root ganglion; endogenous in cells; host or cells: differentiated SH-SY5Y cells (neurons)

[5] = system: sensory neurons derived from induced pluripotent stem cells; assay: Paclitaxel damage in iPSC-derived sensory neurons, peripherin immunolabelling; format: cell-based, human; settings: paclitaxel 24 hours
Experimental: Cells were treated with paclitaxel for 24 hours and immunolabeled using an antibody for peripherin.
Cells were pretreated for 48 hours with 25 μM rifampicin prior to addition of paclitaxel treatment.

[6] = system: TRPV1; assay: TRPV1 expression in iPSC-derived sensory neurons (RT-qPCR); format: cell-based, human; settings: paclitaxel, dose-dependent
Experimental: (§5) Induced pluripotent stem cells were differentiated to sensory neurons for 35-40 days as described above. Rifampicin was added 48 hours ahead of paclitaxel to increase expression of efflux transporters. Expression levels was determined using real-time qualitative polymerase chain reaction (RT-qPCR) for TRPV1 and ATF-3.

[7] = system: ATF-3; assay: ATF-3 expression in iPSC-derived sensory neurons (RT-qPCR); format: cell-based, human; settings: paclitaxel, dose-dependent
Experimental: as §5

[8] = system: SH-SY5Y-derived neurons
Experimental: as §1, §2, §3, §4

[9] = vincristine 0.001-1 μM, 24 hours

T1 sequence (P08183 whole entry): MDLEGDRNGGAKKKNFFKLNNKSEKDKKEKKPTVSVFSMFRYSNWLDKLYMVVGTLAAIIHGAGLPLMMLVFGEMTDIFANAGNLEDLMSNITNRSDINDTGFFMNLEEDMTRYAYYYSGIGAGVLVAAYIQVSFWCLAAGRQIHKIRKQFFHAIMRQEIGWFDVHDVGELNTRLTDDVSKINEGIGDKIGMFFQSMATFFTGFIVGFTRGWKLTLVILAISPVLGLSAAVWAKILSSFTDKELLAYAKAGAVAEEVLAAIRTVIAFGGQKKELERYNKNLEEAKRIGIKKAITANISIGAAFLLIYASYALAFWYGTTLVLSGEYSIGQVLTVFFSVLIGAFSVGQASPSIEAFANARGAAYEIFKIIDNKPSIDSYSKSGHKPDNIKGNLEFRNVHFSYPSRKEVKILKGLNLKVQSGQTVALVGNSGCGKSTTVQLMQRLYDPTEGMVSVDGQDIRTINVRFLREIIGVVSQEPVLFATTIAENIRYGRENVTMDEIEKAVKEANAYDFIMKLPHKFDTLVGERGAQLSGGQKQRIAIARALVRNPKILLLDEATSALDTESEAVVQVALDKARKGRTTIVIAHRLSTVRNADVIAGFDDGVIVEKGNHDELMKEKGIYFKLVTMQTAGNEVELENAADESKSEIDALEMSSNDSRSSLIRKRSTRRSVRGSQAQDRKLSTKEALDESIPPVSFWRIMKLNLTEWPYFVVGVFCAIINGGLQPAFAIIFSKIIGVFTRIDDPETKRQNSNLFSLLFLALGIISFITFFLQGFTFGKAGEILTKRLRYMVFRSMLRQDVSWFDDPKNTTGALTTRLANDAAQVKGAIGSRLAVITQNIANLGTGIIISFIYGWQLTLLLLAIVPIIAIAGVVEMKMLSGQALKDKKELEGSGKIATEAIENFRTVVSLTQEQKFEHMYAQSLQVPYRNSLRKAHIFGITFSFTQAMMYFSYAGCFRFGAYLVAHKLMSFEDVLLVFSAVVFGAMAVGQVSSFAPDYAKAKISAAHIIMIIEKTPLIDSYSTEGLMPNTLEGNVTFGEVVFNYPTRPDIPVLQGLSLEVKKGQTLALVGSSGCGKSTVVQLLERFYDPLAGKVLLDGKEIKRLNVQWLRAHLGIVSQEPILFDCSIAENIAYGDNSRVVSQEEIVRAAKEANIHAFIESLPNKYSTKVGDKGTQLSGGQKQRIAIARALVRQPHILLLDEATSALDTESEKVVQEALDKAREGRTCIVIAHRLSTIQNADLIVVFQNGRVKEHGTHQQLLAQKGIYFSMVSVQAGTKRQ

Compound: CN(C)C(=O)CCSC(SCCC(=O)O)c1cccc(/C=C/c2ccc3ccc(Cl)cc3n2)c1 (centres unmarked) [MK-571]
effect of MRP1 inhibition on vincristine neurotoxicity ([1]; 4 μM MK-571 one hour ahead of vincristine, low vincristine concentrations): substantially increased neurotoxicity

Compound: CC[C@]1(O)C[C@H]2CN(CCc3c([nH]c4ccccc34)[C@@](C(=O)OC)(c3cc4c(cc3OC)N(C=O)[C@H]3[C@@](O)(C(=O)OC)[C@H](OC(C)=O)[C@]5(CC)C=CCN6CC[C@]43[C@@H]65)C2)C1 [vincristine]
neurite length [1, 9]: shortened in a dose-dependent manner | number of neurites extending from a cluster of sensory neurons [1, 9]: dose-dependent decrease

Multivariate analysis Odds-ratio of paclitaxel dose modification due to peripheral neuropathy [2]: 7.01 | Univariate analysis Odds-ratio of paclitaxel dose modification due to peripheral neuropathy [2]: 9.41 | increased risk of dose modification due to peripheral neuropathy [2]: 7.0 fold
Compound: CC(C)c1c(C(=O)Nc2ccccc2)c(-c2ccccc2)c(-c2ccc(F)cc2)n1CC[C@@H](O)C[C@@H](O)CC(=O)O [Atorvastatin]

effect on neuronal morphology without paclitaxel present ([3]; 4 μM valspodar alone): did not affect
Compound: C/C=C/C[C@@H](C)C(=O)[C@H]1C(=O)N[C@@H](C(C)C)C(=O)N(C)CC(=O)N(C)[C@@H](CC(C)C)C(=O)N[C@@H](C(C)C)C(=O)N(C)[C@@H](CC(C)C)C(=O)N[C@@H](C)C(=O)N[C@H](C)C(=O)N(C)[C@@H](CC(C)C)C(=O)N(C)[C@@H](CC(C)C)C(=O)N(C)[C@@H](C(C)C)C(=O)N1C [valspodar]
effect on neuronal toxicity of paclitaxel (number and length of neurites) ([3]; 4 μM valspodar together with paclitaxel, 24 hours, ANOVA p<0.001): substantially exacerbated

increase in intracellular accumulation of paclitaxel on inhibition of P-gp [4]: > 3 fold | TRPV1 expression [6]: substantially increased expression | ATF-3 expression [7]: substantially increased expression | neurite length [8]: significantly reduced | number of neurites [8]: significantly reduced
Compound: CC(=O)O[C@H]1C(=O)[C@@]2(C)[C@H]([C@H](OC(=O)c3ccccc3)[C@]3(O)C[C@H](OC(=O)[C@H](O)[C@@H](NC(=O)c4ccccc4)c4ccccc4)C(C)=C1C3(C)C)[C@]1(OC(C)=O)CO[C@@H]1C[C@@H]2O [Paclitaxel]
damage to sensory neurons [5]: marked damage

Multivariate analysis Odds-ratio of paclitaxel dose modification due to peripheral neuropathy [2]: 0.31 | Univariate analysis Odds-ratio of paclitaxel dose modification due to peripheral neuropathy [2]: 0.60 | increased risk of dose modification due to peripheral neuropathy [2]: not at increased risk
Compound: CCC(C)(C)C(=O)O[C@H]1C[C@@H](C)C=C2C=C[C@H](C)[C@H](CC[C@@H]3C[C@@H](O)CC(=O)O3)[C@H]21 [Simvastatin]
